Results taken from patent publication US20070225355A1, “Dietary Compositions for Enhancing Metabolism and Reducing Reactive Oxygen Species” (Elixirin Corporation, priority 2004, published 2007).

Assays:
[1] = system: Fischer 344 male rats; experiment: Morris water maze spatial memory test in rats; format: in vivo, rat; details: fed 7 weeks, 4 consecutive days, 4 trials per day, averaged, standard deviation around 20%
Excerpt: FIG. 1 of 2 depicts measurements of spatial memory in (Fischer 344 male rats) subjected to a water maze test, after treatment with carnitine, lipoic acid, and/or polyphenol. […] The Morris maze task tests spatial memory by requiring rats to fmd a submerged platform in a pool of water using external visual cues (Morris, R. 1984; J. Neurosci. Methods, 11:47-60; Schenk, F. and Morris, R, Exp. Brain Res. 58:11-28, 1985). The rats in the experimental group (5 each) were fed either 0.5% (wt/vol) acetyl-L-carnitine in water, 1.0% (wt/vol) polyphenol in water; 0.2% (wt/wt) lipoic acid in AIN93M diet, or a combination of the above. Rats were acclimated for one week before experiments. Rats were fed for the above treatment for 7 weeks before tests. Trials (4 consecutive days, 4 trials per day) were conducted and the results averaged. The standard deviation is around 20%. Control rats were fed with water and AIN93M diet only.

[2] = system: oxidation level of DNA; experiment: Oxidation level of DNA in hippocampus sections (anti-8-hydroxy-2'-deoxyguanosine/8-hydroxyguanosine immunocytochemistry); format: in vivo; details: rat brain hippocampus sections, fed 7 weeks; mean of 5 animals; standard deviation about 15%
Excerpt: The rats in the experimental group (5 each) were fed either 0.5% (wt/vol) acetyl-L-camitine in water, 1.0% (wt/vol) polyphenol in water; 0.2% (wt/wt) lipoic acid in AIN93M diet, or a combination of the above. Rats were acclimated for one week before experiments. Rats were fed for the above treatment for 7 weeks before tests. Control rats were fed with water and AIN93M diet only. For assaying DNA oxidation, rats from each treatment group (5 animals per group) was anesthetized with ether and perfused with paraformaldehyde. The brain was removed and postfixed for paraffin sections. Sections of hippocampus were incubated with anti-8-hydroxy-2′-deoxyguanosine/8-hydroxyguanosine and visualized by using standard immunocytochemical methods. Quantification of oxidation was done as described in Liu, J K, et al., (Proc. Natl. Acad. Sci USA, 99:1356-2361, 2002). Values are a mean of 5 animals. The standard deviation is about 15%.

Q: For O=C(O)CCCC[C@@H]1CCSS1 (racemic) [lipoic acid], which “mastery of the water maze, faster over no treatment” value [1] is on record?
A: ~79%

Q: What about the “DNA oxidation level compared with rats having no treatment” value [2] of the same compound?
A: ~82%
